Results as given in PubChem BioAssay AID2060893 (Molecular Pharmacology Branch, DTP, NCI, 2025).
pIC50: −log10 of the molar value.

Tested on: K86415-001-R-J1-PDC complex spheroids, viability
Assay: Anticancer human tumor K86415-001-R-J1-PDC patient-derived lung adenocarcinoma cell line growth inhibition [RAS]
Conditions: for pIC50: curve of first compound; for viability, T/C: stronger effect = lower value
Summary of the method: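 Tumour cells grown as complex spheroids with HUVEC endothelial cells and mesenchymal stem cells, treated with RAS pathway inhibitor combinations. Each agent spans half-log steps from near clinical Cmax, or 10 microM where Cmax is unknown.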

[1] = second compound 0.000949 µM, first compound 0.0316 µM
[2] = second compound 0.000949 µM, first compound 0.1 µM
[3] = second compound 0.000949 µM, first compound 0.316 µM
[4] = second compound 0.000949 µM, first compound 1 µM
[5] = second compound 0.000949 µM, first compound 3.16 µM
[6] = second compound 0.000949 µM, first compound 10 µM
[7] = second compound 0.003 µM, first compound 0.0316 µM
[8] = second compound 0.003 µM, first compound 0.1 µM
[9] = second compound 0.003 µM, first compound 0.316 µM
[10] = second compound 0.003 µM, first compound 1 µM
[11] = second compound 0.003 µM, first compound 3.16 µM
[12] = second compound 0.003 µM, first compound 10 µM
[13] = second compound 0.00949 µM, first compound 0.0316 µM
[14] = second compound 0.00949 µM, first compound 0.1 µM
[15] = second compound 0.00949 µM, first compound 0.316 µM
[16] = second compound 0.00949 µM, first compound 1 µM
[17] = second compound 0.00949 µM, first compound 3.16 µM
[18] = second compound 0.00949 µM, first compound 10 µM
[19] = second compound 0.03 µM, first compound 0.0316 µM
[20] = second compound 0.03 µM, first compound 0.1 µM
[21] = second compound 0.03 µM, first compound 0.316 µM
[22] = second compound 0.03 µM, first compound 1 µM
[23] = second compound 0.03 µM, first compound 3.16 µM
[24] = second compound 0.03 µM, first compound 10 µM
[25] = second compound 0.0949 µM, first compound 0.0316 µM
[26] = second compound 0.0949 µM, first compound 0.1 µM
[27] = second compound 0.0949 µM, first compound 0.316 µM
[28] = second compound 0.0949 µM, first compound 1 µM
[29] = second compound 0.0949 µM, first compound 3.16 µM
[30] = second compound 0.0949 µM, first compound 10 µM
[31] = second compound 0.3 µM, first compound 0.0316 µM
[32] = second compound 0.3 µM, first compound 0.1 µM
[33] = second compound 0.3 µM, first compound 0.316 µM
[34] = second compound 0.3 µM, first compound 1 µM
[35] = second compound 0.3 µM, first compound 3.16 µM
[36] = second compound 0.3 µM, first compound 10 µM
[37] = second compound 0.000949 µM, first compound 0.00316 µM
[38] = second compound 0.000949 µM, first compound 0.01 µM
[39] = second compound 0.003 µM, first compound 0.00316 µM
[40] = second compound 0.003 µM, first compound 0.01 µM
[41] = second compound 0.00949 µM, first compound 0.00316 µM
[42] = second compound 0.00949 µM, first compound 0.01 µM
[43] = second compound 0.03 µM, first compound 0.00316 µM
[44] = second compound 0.03 µM, first compound 0.01 µM
[45] = second compound 0.0949 µM, first compound 0.00316 µM
[46] = second compound 0.0949 µM, first compound 0.01 µM
[47] = second compound 0.3 µM, first compound 0.00316 µM
[48] = second compound 0.3 µM, first compound 0.01 µM
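Also: spheroids exposed to agents for seven days before readout.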

CC(C)NCC(C(=O)N1CCN(c2ncnc3c2C(C)CC3O)CC1)c1ccc(Cl)cc1 (stereo not drawn) + CCn1c(-c2cccnc2C(C)OC)c2c3cc(ccc31)N1CCOC(CC(NC(=O)C(C(C)C)N(C)C(=O)C3(F)CCN(C(=O)C#CC(C)(C)N(C)C)CC3)C(=O)N3CCCC(N3)C(=O)OCC(C)(C)C2)C1
pIC50 (second compound 0.000949 µM): > 7.50 | pIC50 (second compound 0.003 µM): > 7.50 | pIC50 (second compound 0.00949 µM): > 7.50 | pIC50 (second compound 0.03 µM): > 7.50 | pIC50 (second compound 0.0949 µM): > 7.50 | pIC50 (second compound 0.3 µM): > 7.50 | viability, T/C [1]: 35.7% | viability, T/C [2]: 32.2% | viability, T/C [3]: 17.5% | viability, T/C [4]: 23.3% | viability, T/C [5]: 27.7% | viability, T/C [6]: 2.82% | viability, T/C [7]: 13.4% | viability, T/C [8]: 10.9% | viability, T/C [9]: 8.95% | viability, T/C [10]: 8.63% | viability, T/C [11]: 7.76% | viability, T/C [12]: 2.54% | viability, T/C [13]: 12.8% | viability, T/C [14]: 9.52% | viability, T/C [15]: 9.15% | viability, T/C [16]: 9.63% | viability, T/C [17]: 4.93% | viability, T/C [18]: 3.21% | viability, T/C [19]: 12.9% | viability, T/C [20]: 10.5% | viability, T/C [21]: 10.2% | viability, T/C [22]: 8.95% | viability, T/C [23]: 4.3% | viability, T/C [24]: 3.21% | viability, T/C [25]: 9.52% | viability, T/C [26]: 9.03% | viability, T/C [27]: 9.7% | viability, T/C [28]: 10% | viability, T/C [29]: 4.97% | viability, T/C [30]: 2.94% | viability, T/C [31]: 12.9% | viability, T/C [32]: 12% | viability, T/C [33]: 10.3% | viability, T/C [34]: 6.44% | viability, T/C [35]: 4.71% | viability, T/C [36]: 2.26%

CC(C)n1nc(-c2ccc3oc(N)nc3c2)c2c(N)ncnc21 + CCn1c(-c2cccnc2C(C)OC)c2c3cc(ccc31)N1CCOC(CC(NC(=O)C(C(C)C)N(C)C(=O)C3(F)CCN(C(=O)C#CC(C)(C)N(C)C)CC3)C(=O)N3CCCC(N3)C(=O)OCC(C)(C)C2)C1
pIC50 (second compound 0.000949 µM): > 9.50 | pIC50 (second compound 0.003 µM): > 9.50 | pIC50 (second compound 0.00949 µM): > 9.50 | pIC50 (second compound 0.03 µM): > 9.50 | pIC50 (second compound 0.0949 µM): > 9.50 | pIC50 (second compound 0.3 µM): > 9.50 | viability, T/C (second compound 0.000949 µM, first compound 0.000316 µM): 34% | viability, T/C (second compound 0.000949 µM, first compound 0.001 µM): 35.4% | viability, T/C [37]: 23.2% | viability, T/C [38]: 41.4% | viability, T/C [1]: 24.4% | viability, T/C [2]: 5.51% | viability, T/C (second compound 0.003 µM, first compound 0.000316 µM): 13% | viability, T/C (second compound 0.003 µM, first compound 0.001 µM): 12.1% | viability, T/C [39]: 10.7% | viability, T/C [40]: 14.7% | viability, T/C [7]: 8.1% | viability, T/C [8]: 3.6% | viability, T/C (second compound 0.00949 µM, first compound 0.000316 µM): 13.2% | viability, T/C (second compound 0.00949 µM, first compound 0.001 µM): 9.19% | viability, T/C [41]: 10.9% | viability, T/C [42]: 13.8% | viability, T/C [13]: 7.68% | viability, T/C [14]: 2.81% | viability, T/C (second compound 0.03 µM, first compound 0.000316 µM): 12.8% | viability, T/C (second compound 0.03 µM, first compound 0.001 µM): 10.7% | viability, T/C [43]: 11.1% | viability, T/C [44]: 12.4% | viability, T/C [19]: 5.85% | viability, T/C [20]: 3.42% | viability, T/C (second compound 0.0949 µM, first compound 0.000316 µM): 10.1% | viability, T/C (second compound 0.0949 µM, first compound 0.001 µM): 11% | viability, T/C [45]: 10.1% | viability, T/C [46]: 12.7% | viability, T/C [25]: 4.18% | viability, T/C [26]: 2.27% | viability, T/C (second compound 0.3 µM, first compound 0.000316 µM): 14.4% | viability, T/C (second compound 0.3 µM, first compound 0.001 µM): 11.3% | viability, T/C [47]: 12.1% | viability, T/C [48]: 7.79% | viability, T/C [31]: 4.23% | viability, T/C [32]: 2.06%

CC(Nc1ccc2c(c1)OCCn1cc(N3C(=O)OCC3C(F)F)nc1-2)C(N)=O (stereo not drawn) + CCn1c(-c2cccnc2C(C)OC)c2c3cc(ccc31)N1CCOC(CC(NC(=O)C(C(C)C)N(C)C(=O)C3(F)CCN(C(=O)C#CC(C)(C)N(C)C)CC3)C(=O)N3CCCC(N3)C(=O)OCC(C)(C)C2)C1
pIC50 (second compound 0.000949 µM): > 7.50 | pIC50 (second compound 0.003 µM): > 7.50 | pIC50 (second compound 0.00949 µM): > 7.50 | pIC50 (second compound 0.03 µM): > 7.50 | pIC50 (second compound 0.0949 µM): > 7.50 | pIC50 (second compound 0.3 µM): > 7.50 | viability, T/C [1]: 26.6% | viability, T/C [2]: 24.9% | viability, T/C [3]: 14.1% | viability, T/C [4]: 24.3% | viability, T/C [5]: 8.98% | viability, T/C [6]: 1.64% | viability, T/C [7]: 11.9% | viability, T/C [8]: 8% | viability, T/C [9]: 6.61% | viability, T/C [10]: 4.14% | viability, T/C [11]: 2.69% | viability, T/C [12]: 0.95% | viability, T/C [13]: 9.31% | viability, T/C [14]: 8.26% | viability, T/C [15]: 6.9% | viability, T/C [16]: 3.65% | viability, T/C [17]: 1.68% | viability, T/C [18]: 1.1% | viability, T/C [19]: 8.58% | viability, T/C [20]: 7.61% | viability, T/C [21]: 6.15% | viability, T/C [22]: 2.63% | viability, T/C [23]: 1.91% | viability, T/C [24]: 1.86% | viability, T/C [25]: 10.4% | viability, T/C [26]: 8.62% | viability, T/C [27]: 4.05% | viability, T/C [28]: 3.24% | viability, T/C [29]: 1.57% | viability, T/C [30]: 1.22% | viability, T/C [31]: 8.96% | viability, T/C [32]: 6.86% | viability, T/C [33]: 3.94% | viability, T/C [34]: 2.09% | viability, T/C [35]: 1.58% | viability, T/C [36]: 1.59%

O=C(c1ccc(F)c(F)c1Nc1ccc(I)cc1F)N1CC(O)([C@@H]2CCCCN2)C1 + CCn1c(-c2cccnc2C(C)OC)c2c3cc(ccc31)N1CCOC(CC(NC(=O)C(C(C)C)N(C)C(=O)C3(F)CCN(C(=O)C#CC(C)(C)N(C)C)CC3)C(=O)N3CCCC(N3)C(=O)OCC(C)(C)C2)C1
pIC50 (second compound 0.000949 µM): > 8.50 | pIC50 (second compound 0.003 µM): > 8.50 | pIC50 (second compound 0.00949 µM): > 8.50 | pIC50 (second compound 0.03 µM): > 8.50 | pIC50 (second compound 0.0949 µM): > 8.50 | pIC50 (second compound 0.3 µM): > 8.50 | viability, T/C [37]: 33.7% | viability, T/C [38]: 29.1% | viability, T/C [1]: 11.7% | viability, T/C [2]: 15.2% | viability, T/C [3]: 6.3% | viability, T/C [4]: 2.8% | viability, T/C [39]: 11.8% | viability, T/C [40]: 8.85% | viability, T/C [7]: 7.64% | viability, T/C [8]: 7.02% | viability, T/C [9]: 4.31% | viability, T/C [10]: 2.26% | viability, T/C [41]: 11.9% | viability, T/C [42]: 9.16% | viability, T/C [13]: 7.57% | viability, T/C [14]: 6.25% | viability, T/C [15]: 3.49% | viability, T/C [16]: 2.55% | viability, T/C [43]: 10.5% | viability, T/C [44]: 8.81% | viability, T/C [19]: 12.8% | viability, T/C [20]: 7.27% | viability, T/C [21]: 2.71% | viability, T/C [22]: 2.49% | viability, T/C [45]: 11.1% | viability, T/C [46]: 9.53% | viability, T/C [25]: 8.98% | viability, T/C [26]: 6.47% | viability, T/C [27]: 2.33% | viability, T/C [28]: 1.78% | viability, T/C [47]: 12.8% | viability, T/C [48]: 11% | viability, T/C [31]: 8.71% | viability, T/C [32]: 5.63% | viability, T/C [33]: 2.69% | viability, T/C [34]: 2.11%
